In patent publication US20260256772A1, “BENZOTHIAZOLE COMPOUND AND USE THEREOF” (NANJING REJU THERAPEUTICS, INC., priority 2022, published 2026):

How the values were obtained:
senescent cells = experiment: Senescent cell killing, CellTiter-Glo cell viability; assay type: cell-based, human, mouse; conditions: activity of killing senescent cells; cell type not specified
From the text: In this test example, human non-small cell lung cancer cell line (A549 cells), human embryonic lung fibroblast cell line (IMR90 cells), human retinal pigment epithelial cells (RPE cells), mouse chondrocytes, and mouse skin fibroblasts were selected. The above cells were induced by etoposide ([…]) to obtain their senescent cells. The effect of the target compounds on the viability of normal and senescent cells above was examined, thus assessing the specific killing effect of the compounds on senescent cells above.
Briefly, senescent and normal cells above were selected and plated separately (96-well plates). […] 2A to 2E.

platelets = experiment: Platelet toxicity test in mice (platelet count); assay type: in vivo
Procedure: In this test example, C57 mice were chosen to detect the effect of the target compounds on platelets.
7 to 8 weeks old […] mice were randomly divided into vehicle group and compound group. The test compound (0.5 mg/kg) or blank vehicle was administrated via single intraperitoneal injection. Blood was collected from the retroorbital venous plexus of the mice at 6 hours, and placed in a blood routine tube containing anticoagulant EDTA-K2. After shaking gently, the blood physiological indicators were measured using a hematology analyzer, with the platelet count as the target parameter for this platelet toxicity test.

Compound | IC50 (senescent cells) | platelet toxicity (platelet count) (platelets; mouse, in vivo, ip, 0.5 mg/kg) | platelet toxicity (platelet count) (platelets; mice, 0.5 mg/kg single intraperitoneal injection, blood at 6 hours, FIG. 1)
Cc1c(-c2ccc(N3CCc4cccc(C(=O)Nc5nc6ccccc6s5)c4C3)nc2C(=O)N2CCNC(=O)C2)cnn1CC12CC3CC(CC(C3)C1)C2 [RX004] | 0.2 to 1 µM | – | –
Cc1c(-c2ccc(N3CCc4cccc(C(=O)Nc5nc6ccccc6s5)c4C3)nc2C(=O)NCc2ccco2)cnn1CC12CC3CC(CC(C3)C1)C2 [RX005] | > 10 µM | – | –
Cc1c(-c2ccc(N3CCc4cccc(C(=O)Nc5nc6ccccc6s5)c4C3)nc2C(=O)N2CCN(C)CC2)cnn1CC12CC3CC(CC(C3)C1)C2 [RX007] | 0.2 to 1 µM | – | –
Cc1c(-c2ccc(N3CCc4cccc(C(=O)Nc5nc6ccccc6s5)c4C3)nc2C(=O)N2CCNCC2)cnn1CC12CC3CC(CC(C3)C1)C2 [RX008] | 0.2 to 1 µM | – | –
Cc1c(-c2ccc(N3CCc4cccc(C(=O)Nc5nc6ccccc6s5)c4C3)nc2C(=O)N2CCOCC2)cnn1CC12CC3CC(CC(C3)C1)C2 [RX009] | < 0.2 µM | – | –
Cc1c(-c2ccc(N3CCc4cccc(C(=O)Nc5nc6ccccc6s5)c4C3)nc2C(=O)NCC2CCOCC2)cnn1CC12CC3CC(CC(C3)C1)C2 [RX010] | 0.2 to 1 µM | – | –
Cc1c(-c2ccc(N3CCc4cccc(C(=O)Nc5nc6ccccc6s5)c4C3)nc2C(=O)N2CCC(CO)CC2)cnn1CC12CC3CC(CC(C3)C1)C2 [RX011] | < 0.2 µM | significantly improved | –
Cc1c(-c2ccc(N3CCc4cccc(C(=O)Nc5nc6ccccc6s5)c4C3)nc2C(=O)NCCN2CCOCC2)cnn1CC12CC3CC(CC(C3)C1)C2 [RX012] | 0.2 to 1 µM | – | –
Cc1c(-c2ccc(N3CCc4cccc(C(=O)Nc5nc6ccccc6s5)c4C3)nc2C(=O)N2CCN(CCO)CC2)cnn1CC12CC3CC(CC(C3)C1)C2 [RX013] | < 0.2 µM | significantly improved | –
Cc1c(-c2ccc(N3CCc4cccc(C(=O)Nc5nc6ccccc6s5)c4C3)nc2C(=O)NCCO)cnn1CC12CC3CC(CC(C3)C1)C2 [RX014] | 1 to 10 µM | – | –
Cc1c(-c2ccc(N3CCc4cccc(C(=O)Nc5nc6ccccc6s5)c4C3)nc2C(=O)NCC(=O)O)cnn1CC12CC3CC(CC(C3)C1)C2 [RX015] | 1 to 10 µM | – | –
Cc1c(-c2ccc(N3CCc4cccc(C(=O)Nc5nc6ccccc6s5)c4C3)nc2C(=O)N2CCN(CCN)CC2)cnn1CC12CC3CC(CC(C3)C1)C2 [RX016] | 0.2 to 1 µM | significantly improved | –
Cc1c(-c2ccc(N3CCc4cccc(C(=O)Nc5nc6ccccc6s5)c4C3)nc2C(=O)N2CCC(O)CC2)cnn1CC12CC3CC(CC(C3)C1)C2 [RX019] | < 0.2 µM | significantly improved | –
Cc1c(-c2ccc(N3CCc4cccc(C(=O)Nc5nc6ccccc6s5)c4C3)nc2C(=O)NCC(=O)OCc2ccccc2)cnn1CC12CC3CC(CC(C3)C1)C2 [RX020] | > 10 µM | – | –
CCOC(=O)C(C)NC(=O)c1nc(N2CCc3cccc(C(=O)Nc4nc5ccccc5s4)c3C2)ccc1-c1cnn(CC23CC4CC(CC(C4)C2)C3)c1C (centres unmarked) [RX021] | 1 to 10 µM | – | –
CCOC(=O)CCC(NC(=O)c1nc(N2CCc3cccc(C(=O)Nc4nc5ccccc5s4)c3C2)ccc1-c1cnn(CC23CC4CC(CC(C4)C2)C3)c1C)C(=O)OCC (centres unmarked) [RX022] | > 10 µM | – | –
Cc1c(-c2ccc(N3CCc4cccc(C(=O)Nc5nc6ccccc6s5)c4C3)nc2C(=O)N2CCC(OP(=O)(O)O)CC2)cnn1CC12CC3CC(CC(C3)C1)C2 [RX302] | < 0.2 µM | – | –
Cc1c(-c2ccc(N3CCc4cccc(C(=O)Nc5nc6ccccc6s5)c4C3)nc2C(=O)N2CCN(CCOP(=O)(O)O)CC2)cnn1CC12CC3CC(CC(C3)C1)C2 [RX304] | < 0.2 µM | – | significantly improved
